# Test results: paper PMC8259857, “Anti-tubercular activity and molecular docking studies of indolizine derivatives targeting mycobacterial InhA enzyme” (Journal of Enzyme Inhibition and Medicinal Chemistry, 2021)
# System: MDR-MTB (rifampicin and isoniazid-resistant MTB strain)
# Experiment: microbe, parasite or virus in culture
# Format: cell-based, Mycobacterium tuberculosis
# Details: for fold reduced MDR-MTB activity compared to H37Rv MTB strain: MIC MDR-MTB versus MIC H37Rv; for MIC: Mycobacterium tuberculosis, read-out: MIC MDR-MTB; for MIC MDR-MTB: isolates resistant to rifampicin (1 μg/mL) and isoniazid (0.2 μg/mL), NA: not active at the concentration range (0.2–64 μg/mL)
SMILES,fold reduced MDR-MTB activity compared to H37Rv MTB strain,MIC,MIC MDR-MTB
CCOC(=O)c1cc(C(=O)c2ccc([N+](=O)[O-])cc2)n2ccccc12 [Compound 2d],8 fold,64 µg/mL,–
CCOC(=O)c1cc(C(=O)c2ccc(C)cc2)n2ccccc12 [Compound 2e],–,–,completely abolished the activity
CCOC(=O)c1cc(C(=O)c2ccc(C#N)cc2)n2ccccc12 [Compound 2f],–,–,completely abolished the activity
CCOC(=O)c1c(C)c(C(=O)c2ccc(F)cc2)n2ccccc12 [Compound 3a],8 fold,32 µg/mL,–
CCOC(=O)c1c(C)c(C(=O)c2ccc(Cl)cc2)n2ccccc12 [Compound 3b],–,–,inactive
CCOC(=O)c1c(C)c(C(=O)c2ccc([N+](=O)[O-])cc2)n2ccccc12 [Compound 3d],–,–,inactive
"CCOC(=O)c1c(C(=O)OCC)c2ccccn2c1C(=O)c1ccc(F)cc1 [Compound 4a, Diethyl-3-(4-fluorobenzoyl)indolizine-1,2-dicarboxylate]",–,16 µg/mL,–
"CCOC(=O)c1c(C(=O)OCC)c2ccccn2c1C(=O)c1ccc(Cl)cc1 [Compound 4b, Diethyl-3-(4-chlorobenzoyl)indolizine-1,2-dicarboxylate]",–,16 µg/mL,–
"CCOC(=O)c1c(C(=O)OCC)c2ccccn2c1C(=O)c1ccc([N+](=O)[O-])cc1 [Compound 4c, Diethyl-3-(4-nitrobenzoyl)indolizine-1,2-dicarboxylate]",–,64 µg/mL,–
"NNC(=O)c1ccncc1 [Isoniazid, reference compound]",–,≥ 0.2 µg/mL,–
"CO[C@H]1/C=C/O[C@@]2(C)Oc3c(C)c(O)c4c(O)c(c(/C=N/N5CCN(C)CC5)c(O)c4c3C2=O)NC(=O)/C(C)=C\C=C\[C@H](C)[C@H](O)[C@@H](C)[C@@H](O)[C@@H](C)[C@H](OC(C)=O)[C@@H]1C [Rifampicin, reference compound]",–,≥ 1 µg/mL,–
